The values below come from patent US7919471B2, “Method of modulating cell survival and reagents useful for same” (The University of Queensland, priority 1998, dated 2011).

For one test, the system named is membrane bound c35. Briefly: Protection by soluble c35 / 29mer against death signalling from membrane-bound c35. In kind it is cell-based. Particulars: for protection against membrane-linked, expressed c35: FIG. 7, microinjection of sptc35, peptide 30 minutes later. As for the experimental part: FIG. 7 is a graphical representation showing protection of membrane-bound killing-domain by a soluble 35 amino acid peptide and a soluble 29 amino acid peptide. The cells were subjected to microinjection of sptc35 or GFP followed 30 minutes later by either peptide c35 or the 29mer peptide.

In another test the test system is p75^NTR-mediated death. Briefly: Modulation of p75NTR-induced killing of microinjected DRG neurons by co-expressed proteins, antisense or caspase inhibitors. In kind it is cell-based, mouse. Particulars: for p75^NTR-mediated (induced) neural death: neurons over-expressing p75^NTR, in LIF, agent present or co-expressed. An excerpt: The inventors hypothesised that the free cytoplasmic expressed 35 amino acid domain might be able to interfere with death signalling from full length p75^NTR proteins by a dominant-negative mechanism, and attempted to inhibit the death by co-expressing the proteins. Given the results presented below regarding the ability of overexpression of Bcl-2 to enhance p75^NTR killing, this paradigm was used to test the ability of the c35 protein to inhibit death signalling.
As the inventors had shown that the death of dorsal root ganglia (DRG) sensory neurons in vitro and in vivo, was, at least in part, mediated by p75^NTR, p75^NTR was over-expressed in these cells by microinjecting rat p75^NTR cDNA expressing plasmid into the nucleus of mouse sensory neurons. These were cultured in the presence of the LIF to prevent neural death not linked to p75^NTR mechanisms. […] The injected neurons were observed over a 48 hour period and the viability was assessed. […] This was expected since the cytoplasmic tail contains a sequence with homology to the Fas/TNFR “death domain” [9].
The Bcl-2 family of proteins is involved in mediating apoptotic signalling pathways, and can homodimerise or heterodimerise with other family members. Bcl-2 and Bcl-xL are well characterised inhibitors of stress-induced apoptosis, JNK activation and neural death due to growth-factor limitation. However, both are poor inhibitors of Fas and TNFR mediated opoptosis. As it had been shown previously that high levels of Bcl-2 or Bcl-xL blocked neural cell death in a variety of models, the inventors examined whether over-expression of these proteins could block the death induced by p75^NTR.
The inventors tested, therefore, whether high endogenous Bcl-2 levels might be necessary for successful p75^NTR-mediated killing in normal neurons by assaying p75^NTR killing in Bcl-2 depleted cells. Endogenous Bcl-2 was down regulated by antisense as previously described.
To investigate whether the p75^NTR-Bcl-2 death-signalling cascade was dependent on caspase activation, inhibitors of caspases were employed.

In test [1] the test system is dorsal root ganglia (DRG) sensory neurons. Briefly: Microinjection of plasmid expression constructs into DRG neurons cultured in LIF; survival of injected neurons. It is filed as cell-based, mouse. Particulars: microinjected DRG neurons cultured in LIF. As to the method:
In order to investigate how p75^NTR signals neural death, the inventors devised a robust in vitro assay for p75^NTR induced death. Plasmid expression constructs were microinjected into individual neurons in the presence of the growth factor LIF, and the survival of the neurons expressing the different plasmids was determined. A series of plasmid constructs which encode incomplete p75^NTR proteins were made (see FIG. 1) and the ability of each protein to signal death when over expressed was assessed.
To further investigate the domain required for death signalling the inventors made constructs expressing p75^NTR proteins deleted for the extracellular domain or the extracellular and transmembrane domains. Proteins without extracellular domains retain the signal peptide which is responsible for correctly transporting the protein into the cell membrane. Proteins without transmembrane domains are expressed free in the cytoplasm of the cell and are epitope tagged with a FLAG motif for detection.
As the inventors had shown that the death of dorsal root ganglia (DRG) sensory neurons in vitro and in vivo, was, at least in part, mediated by p75^NTR, p75^NTR was over-expressed in these cells by microinjecting rat p75^NTR cDNA expressing plasmid into the nucleus of mouse sensory neurons. […] The injected neurons were observed over a 48 hour period and the viability was assessed. […]

Another test concerns neurons. Briefly: Neural death after growth factor withdrawal with Bcl-2 over-expression. It is filed as cell-based, mouse. An excerpt: Thus, at the same expression levels in the same neural population, Bcl-2 was able to prevent or enhance neural cell death depending on the nature of the death signal.
The next test deals with Schwann cells. Briefly: Protection of Schwann cells against NGF-induced death. Particulars: expressed from a genetic construct. It is filed as cell-based.
In the next test the test system is cells. Briefly: Cell death mediated by palmitoylated (membrane-linked) peptides. Particulars: FIG. 8. It is filed as cell-based. As for the experimental part:
FIG. 8 is a graphical representation showing that peptide 29 which has a palmitoyl group at the membrane (amino) end and which facilitates association with the membrane mediates to cell death. […] F, Fluoro tagged; pen, penetratin.
Cells were treated with 2 μM peptide for 1-2 hours then washed. pen, penetratin, F29, 29 mer; Palm, palmitoylation. • ? pen F29 • ? pen F29 Palm • ? pen gp130 Palm • ? pen
The palmitoylation links the peptide to the plasma membrane. This membrane-linked 29mer leads to cell death whereas its soluble form protects cells against p75^NTR-mediated death signalling.
Cells were washed with peptide (2 μM) for approximately 110 minutes and the cells were then washed. Controls included penetratin-fused 29 mer, palmitoylated penetratin-fused 29 mer palmitoylated penetratin-fused gp130 and penetratin alone.

Where no end group is shown, it is not given here.

As to “29mer: truncated form of the 35mer; six amino acids deleted from the C-terminal end (SEQ ID NO:12) (KRWNSCKQNKQGANSRPVNQTPPPEGEKL; listed as Rattus norvegicus)”, the “protection against membrane-linked, expressed c35” value in the test on membrane bound c35 is recorded as “also protected against membrane-bound c35”.
In the case of “Bcl-2 W188A protein: Bcl-2 protein with inactivating point mutation W188A in the BH2 domain”, the “p75^NTR-mediated (induced) neural death” value with p75^NTR-mediated death is given as “protected neurons from any p75^NTR-induced death”.
On to “Bcl-2: over-expressed wildtype Bcl-2 protein”, for which the “p75^NTR-mediated (induced) neural death” value with p75^NTR-mediated death is listed as “induced a significant increase in neural death”. For the same substance, the “neural death / survival after expression of the construct alone” value in test [1] is “had no effect on cell survival”. Moreover, the “neural death induced by NGF withdrawal” value with neurons is given as “able to protect against neural death induced by NGF withdrawal”.
“G145E: Bcl-2 protein with inactivating point mutation G145E in the BH1 domain”: the “p75^NTR-mediated (induced) neural death” value in the test with p75^NTR-mediated death is recorded as “enhanced killing effect seen with Bcl-2 coexpression was abrogated”.
For “c35 protein: free cytoplasmic 35 amino acid p75NTR domain expressed from a plasmid, not membrane associated, FLAG tagged (KRWNSCKQNKQGANSRPVNQTPPPEGEKLHSDSGI; also: FLAG tagged, end not given here; listed as Rattus norvegicus)”, on p75^NTR-mediated death (co-expression in DRG neurons (FIG. 5)), the “killing induced by co-expression of p75^NTR and Bcl-2” value is given as “able to inhibit this killing”. In the test on Schwann cells, the “protection of Schwann cells against NGF-induced death” value is listed as “protected Schwann cells against NGF-induced death”. For the same substance, the “neural death / survival after expression of the construct alone” value in test [1] is listed as “ability of the domain to induce death is removed”. Also, the “protection against membrane bound c35” value in the test with membrane bound c35 (expressed in soluble form) is given as “can also protect cells against membrane bound c35”.
In the case of “soluble c35: 35 amino acid domain of p75NTR juxtaposed to the membrane, in soluble form (SEQ ID NO:8) (KRWNSCKQNKQGANSRPVNQTPPPEGEKLHSDSGI; listed as Rattus norvegicus)”, the “cell death / protection” value with cells is “tends to protect the cells”. Besides, in the test on membrane bound c35 (FIG. 6), the “protection from death signalling by membrane bound c35” value is reported as “protects cells from death signalling in a dose-dependent manner”. In addition, the “protection against membrane-linked, expressed c35” value with membrane bound c35 was “can also protect against membrane-linked, expressed c35”.
For the substance z-VAD [reference compound], the “p75^NTR-mediated (induced) neural death” value in the test with p75^NTR-mediated death is reported as “significantly reduced”.
